Test results reported in patent US10059689B2, “Substituted heteroaryl compounds and methods of use” (Sunshine Lake Pharma Co., Ltd., priority 2014, dated 2018).

Columns and labels:
JAK2 (h) = target: T1, JAK2 (h) (Homo sapiens, UniProt O60674); experiment: JAK2 (h) kinase assay; type: biochemical
T1 construct: purchased Millipore UK Ltd (contract assay service)
Description: (§1) The above assay procedure can be used to determine the IC50 for inhibition and/or the inhibition constant, Ki. The IC50 is defined as the concentration of compound required to reduce the enzyme activity by 50% under the condition of the assay. The IC50 value is estimated by preparing a 10 point curve using a ½ log dilution series (for example, a typical curve may be prepared using the following compound concentrations: 3 μM, 1 μM, 0.3 μM, 0.1 μM, 0.03 μM, 0.01 μM, 0.003 μM, 0.001 μM, 0.0003 μM and 0 μM).
JAK2 (h) is incubated with 8 mM MOPS pH 7.0, 0.2 mM EDTA, 100 μM […], 10 mM MgAcetate and [γ-^33P-ATP] (specific activity approx. 500 cpm/pmol, concentration as required). The reaction is initiated by the addition of the MgATP mix. After incubation for 40 minutes at room temperature, the reaction is stopped by the addition of 3% phosphoric acid solution. 10 μL of the reaction is then spotted onto a P30 filtermat and washed three times for 5 minutes in 75 mM phosphoric acid and once in methanol prior to drying and scintillation counting.
(§2) The kinase assays described herein were performed at Millipore UK Ltd, Dundee Technology Park, Dundee DD2 1SW, UK.

[1] = Compound stability in human liver microsomes; type: in vitro ADME; conditions: for half-life: pH 7.4, 37° C., NADPH, read-out: Human T1/2; for CLint scaled: pH 7.4, in vivo CLint extrapolated
Description: (§3) Human or rat liver microsomes incubations were conducted in duplicate in polypropylene tubes. The typical incubation mixtures consisted of human or rat liver microsomes (0.5 mg protein/mL), compounds of interest (5 μM) and NADPH (1.0 mM) in a total volume of 200 μL potassium phosphate buffer (PBS, 100 mM, pH 7.4). Compounds were dissolved in DMSO and diluted with PBS such that the final concentration of DMSO was 0.05%. The enzymatic reactions were commenced with the addition of protein after a 3-min preincubation and incubated in a water bath open to the air at 37° C. Reactions were terminated at various time points (0, 5, 10, 15, 30, 60 min) by adding equal volume of ice-cold acetonitrile. The samples were stored at −80° C. until LC/MS/MS assays.
(§4) The concentrations of compounds in the incubation mixtures of human or rat liver microsomes were determined by a LC/MS/MS method. The ranges of the linearity in the concentration range were determined for each tested compounds.
(§5) A parallel incubation was performed using denatured microsomes as the negative control, and reactions were terminated at various time points (0, 15, 60 min) after incubation at 37° C.
(§6) Verapamil (1 μM) was selected as the positive control, and reactions were terminated at various time points (0, 5, 10, 15, 30, 60 min) after incubation at 37° C. Both positive and negative control samples were included in each assay to ensure the integrity of the microsomal incubation system.
(§7) In addition, the stability date of compound in human and rat liver microsomes was also obtained through the following method. Human or rat liver microsomes incubations were conducted in duplicate in polypropylene tubes. The typical incubation mixtures consisted of human or rat liver microsomes (0.5 mg protein/mL), compounds of interest (1.5 μM) and EDTA (1.0 mM) in a total volume of 30 μL potassium phosphate buffer (PBS, 100 mM, pH 7.4). Compounds were dissolved in DMSO and diluted with PBS such that the final concentration of DMSO was 0.2%. The enzymatic reactions were commenced with the addition of 15 μL NADPH (final concentration: 2 mM) after a 10-min preincubation and incubated in a water bath open to the air at 37° C. Reactions were terminated at various time points (0, 15, 30, 60 min) by adding 135 μL acetonitrile (contain IS). The samples were centrifuged at 4000 rpm for 10 min to remove protein, the supernatant was stored at −80° C. until LC/MS/MS assays. Ketanserin (1 μM) was selected as the positive control, and reactions were terminated at various time points (0, 15, 30, 60 min) after incubation at 37° C. Both positive and negative control samples were included in each assay to ensure the integrity of the microsomal incubation system.
(§8) The concentrations of compounds in human or rat liver microsome incubations were plotted as a percentage of the relevant zero time point control for each reaction. The in vivo CLint were extrapolated (ref.: Naritomi, Y.; Terashita, S.; Kimura, S.; Suzuki, A.; Kagayama, A.; and Sugiyama, Y.; Prediction of human hepatic clearance from in vivo animal experiments and in vitro metabolic studies with liver microsomes from animals and humans. Drug Metab. Dispos., 2001, 29: 1316-1324).

[2] = Compound stability in rat liver microsomes; type: in vitro ADME; conditions: for half-life: pH 7.4, 37° C., NADPH, read-out: Rat T1/2; for CLint scaled: pH 7.4, in vivo CLint extrapolated
Description: as §3, §4, §5, §6, §7, §8

JAK1 (h) = target: T2, JAK1 (h) (Homo sapiens, UniProt P23458); experiment: JAK1 (h) kinase assay; type: biochemical
T2 construct: purchased Millipore UK Ltd (contract assay service)
T2 sequence (P23458 whole entry): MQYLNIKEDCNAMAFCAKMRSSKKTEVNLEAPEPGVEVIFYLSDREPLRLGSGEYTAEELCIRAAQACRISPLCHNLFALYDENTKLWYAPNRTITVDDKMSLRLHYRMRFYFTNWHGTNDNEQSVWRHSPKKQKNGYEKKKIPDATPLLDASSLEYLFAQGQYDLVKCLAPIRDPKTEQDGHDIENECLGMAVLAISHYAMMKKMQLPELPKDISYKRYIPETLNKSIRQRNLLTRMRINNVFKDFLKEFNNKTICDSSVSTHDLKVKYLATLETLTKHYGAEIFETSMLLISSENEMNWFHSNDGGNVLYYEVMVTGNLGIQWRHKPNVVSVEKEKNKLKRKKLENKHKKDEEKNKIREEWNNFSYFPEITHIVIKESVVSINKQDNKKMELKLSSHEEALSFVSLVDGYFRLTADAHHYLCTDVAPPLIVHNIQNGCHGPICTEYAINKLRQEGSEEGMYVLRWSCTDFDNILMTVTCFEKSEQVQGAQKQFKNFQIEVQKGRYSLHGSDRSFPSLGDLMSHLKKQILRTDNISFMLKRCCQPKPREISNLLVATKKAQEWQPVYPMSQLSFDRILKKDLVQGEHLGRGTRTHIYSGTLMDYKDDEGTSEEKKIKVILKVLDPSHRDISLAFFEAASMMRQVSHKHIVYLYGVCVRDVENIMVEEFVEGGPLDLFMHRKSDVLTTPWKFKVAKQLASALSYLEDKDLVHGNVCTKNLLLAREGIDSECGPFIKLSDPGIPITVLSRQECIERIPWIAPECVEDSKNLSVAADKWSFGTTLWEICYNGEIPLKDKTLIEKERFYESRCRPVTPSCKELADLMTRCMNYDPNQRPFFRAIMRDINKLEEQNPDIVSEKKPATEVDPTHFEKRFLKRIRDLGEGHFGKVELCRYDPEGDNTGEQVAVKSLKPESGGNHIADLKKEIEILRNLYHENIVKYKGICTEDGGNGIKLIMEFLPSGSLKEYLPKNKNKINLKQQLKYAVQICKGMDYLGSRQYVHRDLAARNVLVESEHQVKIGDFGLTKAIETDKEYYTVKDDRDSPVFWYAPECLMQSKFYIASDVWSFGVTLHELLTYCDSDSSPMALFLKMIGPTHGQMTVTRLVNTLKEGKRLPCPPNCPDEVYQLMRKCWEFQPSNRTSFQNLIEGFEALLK
Description: as §1
JAK1 (h) is incubated with 20 mM Tris/HCl pH 7.5, 0.2 mM EDTA, 500 μM GEEPLYWSFPAKKK, 10 mM MgAcetate and [γ-^33P-ATP] (specific activity approx. 500 cpm/pmol, concentration as required). The reaction is initiated by the addition of the MgATP mix. After incubation for 40 minutes at room temperature, the reaction is stopped by the addition of 3% phosphoric acid solution. 10 μL of the reaction is then spotted onto a P30 filtermat and washed three times for 5 minutes in 75 mM phosphoric acid and once in methanol prior to drying and scintillation counting.
as §2

[3] = Pharmacokinetics after intravenous and oral administration in rats; type: in vivo; conditions: for clearance (CL) / AUC(0-t) / half-life / Vd: iv dosing, 1 mg/kg; for F: oral bioavailability; for AUC(0-t) / half-life / Vd: rat, plasma; for Vd: read-out: Vss
Description: The LC/MS/MS system used in the analysis consists of an Agilent 1200 Series vacuum degasser, binary pump, well-plate autosampler, thermostatted column compartment, the Agilent G6430 Triple Quadrupole Mass Spectrometer with an electrosprayionization (ESI) source. Quantitative analysis was carried out using MRM mode. The parameters for MRM transitions are in the Table A.
An Agilent XDB-C18, 2.1×30 mm, 3.5 μM column was used for the analysis. 5 μL of the samples were injected. Analysis condition: The mobile phase was 0.1% formic acid in water (A) and 0.1% formic acid in methanol (B). The flow rate was 0.4 mL/min. And the gradient of Mobile phase was in the Table B.
Alternatively, an Agilent 6330 series LC/MS/MS spectrometer equipped with G1312A binary pumps, a G1367A autosampler and a G1314C UV detector were used in the analysis. An ESI source was used on the LC/MS/MS spectrometer. The analysis was done in positive ion mode as appropriate and the MRM transition for each analyte was optimized using standard solution. A Capcell MP-C18 100×4.6 mm I.D., […] column (Phenomenex, Torrance, Calif., USA) was used during the analysis. The mobile phase was 5 mM ammonia acetate, 0.1% MeOH in water (A): 5 mM ammonia acetate, 0.1% MeOH in acetonitrile (B) (70:30, v/v). The flow rate was 0.6 mL/min. Column was maintained at ambient temperature. 20 μL of the samples were injected.
The compounds disclosed herein are assessed in pharmacokinetic studies in mice, rats, dogs or monkeys. The compounds are administered as a water solution, 2% HPMC+1% TWEEN®80 in water solution, 5% DMSO+5% solutol in saline, 4% MC suspension or capsule. For the intravenous administration, the animals are generally given at 1 or 2 mg/kg dose. For the oral (p.o.) dosing, mice and rats are generally given 5 or 10 mg/kg dose, and dogs and monkeys are generally given 10 mg/kg dose. The blood samples (0.3 mL) are drawn at 0.25, 0.5, 1.0, 2.0, 3.0, 4.0, 6.0, 8.0, 12 and 24 h time points or 0.083, 0.25, 0.5, 1.0, 2.0, 4.0, 6.0, 8.0 and 24 h time points and centrifuged at 3,000 or 4000 rpm for 2 to 10 min. The plasma solutions are collected, and stored at −20° C. or −70° C. until analyzed by LC/MS/MS as described above.

T1 sequence (O60674 whole entry): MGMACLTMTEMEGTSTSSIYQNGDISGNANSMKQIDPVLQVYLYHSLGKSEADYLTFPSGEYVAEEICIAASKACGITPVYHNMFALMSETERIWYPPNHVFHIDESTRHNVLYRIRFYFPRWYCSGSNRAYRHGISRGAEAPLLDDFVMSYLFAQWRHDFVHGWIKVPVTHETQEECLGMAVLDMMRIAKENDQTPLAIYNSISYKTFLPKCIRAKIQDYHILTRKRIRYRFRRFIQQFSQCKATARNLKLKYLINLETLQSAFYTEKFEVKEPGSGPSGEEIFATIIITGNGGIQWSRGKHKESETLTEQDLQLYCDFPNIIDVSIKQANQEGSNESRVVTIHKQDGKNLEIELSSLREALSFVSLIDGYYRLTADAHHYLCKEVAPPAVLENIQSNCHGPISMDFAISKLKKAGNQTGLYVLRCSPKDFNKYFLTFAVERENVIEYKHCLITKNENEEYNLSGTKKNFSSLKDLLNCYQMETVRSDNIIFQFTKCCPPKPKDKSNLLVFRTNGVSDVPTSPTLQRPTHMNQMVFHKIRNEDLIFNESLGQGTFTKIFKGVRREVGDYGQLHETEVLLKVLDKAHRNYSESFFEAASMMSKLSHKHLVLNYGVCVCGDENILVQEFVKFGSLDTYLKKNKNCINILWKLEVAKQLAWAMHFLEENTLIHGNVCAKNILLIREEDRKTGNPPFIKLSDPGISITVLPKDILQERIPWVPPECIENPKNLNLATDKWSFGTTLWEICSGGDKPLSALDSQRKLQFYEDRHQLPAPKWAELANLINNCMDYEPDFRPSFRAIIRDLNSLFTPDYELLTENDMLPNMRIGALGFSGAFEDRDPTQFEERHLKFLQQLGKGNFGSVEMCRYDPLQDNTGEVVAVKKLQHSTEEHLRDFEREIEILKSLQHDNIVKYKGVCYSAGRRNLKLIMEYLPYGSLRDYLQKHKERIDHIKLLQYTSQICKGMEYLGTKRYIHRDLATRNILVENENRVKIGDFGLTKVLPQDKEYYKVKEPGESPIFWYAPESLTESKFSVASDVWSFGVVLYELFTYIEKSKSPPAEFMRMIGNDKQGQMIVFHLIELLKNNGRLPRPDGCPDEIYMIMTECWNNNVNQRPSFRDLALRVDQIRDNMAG

Row | IC50 (JAK2 (h)) | half-life [1] | CLint scaled [1] | half-life [2] | CLint scaled [2] | IC50 (JAK1 (h)) | clearance (CL) [3] | F [3] | AUC(0-t) [3] | half-life [3] | Vd [3] | Structure (SMILES)
1 | 3 nM | 36.3 min | 47.9 mL/min/kg | 17.7 min | 140 mL/min/kg | 0.6 nM | – | – | – | – | – | Cc1cc(Nc2ncc(Cl)c(NC3CCN(c4ccc(C#N)cn4)CC3)n2)nn1C [Ex. 2]
2 | – | 17.9 min | 96.9 mL/min/kg | 10.4 min | 240 mL/min/kg | 4 nM | 48.8 mL/min/kg | 45.8% | 350 ng·h/mL | 54 min | 2.63 L/kg | Cc1cc(Nc2ncc(Cl)c(N(C)C3CCN(c4ccc(C#N)cn4)CC3)n2)nn1C [Ex. 9, 6-(4-((5-chloro-2-((1,5-dimethyl-1H-pyrazol-3-yl)amino)pyrimidin-4-yl) (methyl)amino)piperidin-1-yl)nicotinonitrile]
3 | – | 14.5 min | 120 mL/min/kg | 9.2 min | 270 mL/min/kg | 22 nM | 37.7 mL/min/kg | 67.1% | 445 ng·h/mL | 20.4 min | 0.86 L/kg | CN(c1nc(Nc2cnn(C)c2)ncc1Cl)C1CCN(c2ccc(C#N)cn2)C1 (centres unmarked) [Ex. 7, 6-(3-((5-chloro-2-((1-methyl-1H-pyrazol-4-yl)amino)pyrimidin-4-yl) (methyl)amino)pyrrolidin-1-yl)nicotinonitrile]
4 | 175 nM | 7.99 min | 217 mL/min/kg | 1.71 min | 1450 mL/min/kg | 1 nM | 61.2 mL/min/kg | 107.1% | 273 ng·h/mL | 29.4 min | 1.19 L/kg | Cc1nn(C)cc1Nc1ncc(Cl)c(N(C)C2CCN(c3ccc(C#N)cn3)CC2)n1 [Ex. 14, 6-(4-((5-chloro-2-((1,3-dimethyl-1H-pyrazol-4-yl)amino)pyrimidin-4-yl) (methyl)amino)piperidin-1-yl)nicotinonitrile]
5 | – | 15.6 min | 111 mL/min/kg | 4.3 min | 577 mL/min/kg | 2 nM | 20.2 mL/min/kg | 22.2% | 1360 ng·h/mL | 35.9 min | 0.56 L/kg | Cc1cnc(Nc2cnn(C)c2)nc1N(C)C1CCN(c2ccc(C#N)cn2)CC1 [Ex. 6, 6-(4-(methyl(5-methyl-2-((1-methyl-1H-pyrazol-4-yl)amino)pyrimidin-4-yl)amino)piperidin-1-yl)nicotinonitrile]
6 | 2 nM | 163 min | 10.7 mL/min/kg | 74.5 min | 33.3 mL/min/kg | < 0.3 nM | 17.2 mL/min/kg | 112.01% | 1060 ng·h/mL | 56.4 min | 0.94 L/kg | Cc1cc(Nc2ncc(Cl)c(NC3CCN(c4ccc(C#N)cn4)CC3)n2)n[nH]1 [Ex. 3]
7 | 0.8 nM | – | – | – | – | 1 nM | – | – | – | – | – | Cn1nc(Nc2ncc(Cl)c(NC3CCN(c4ccc(C#N)cn4)CC3)n2)cc1C(C)(C)O [Ex. 26, 6-(4-((5-chloro-2-((5-(2-hydroxypropan-2-yl)-1-methyl-1H-pyrazol-3-yl)amino)pyrimidin-4-yl)amino)piperidin-1-yl)nicotinonitrile]
8 | 0.6 nM | 23.3 min | 74.5 mL/min/kg | 35 min | 71 mL/min/kg | 0.6 nM | 8.67 mL/min/kg | 92.2% | 1930 ng·h/mL | 45.6 min | 0.48 L/kg | CCC1CN(c2ccc(C#N)nn2)CCC1Nc1nc(Nc2cc(C)n(C)n2)ncc1Cl (centres unmarked) [Ex. 15, 6-(4-((5-chloro-2-((1,5-dimethyl-1H-pyrazol-3-yl)amino)pyrimidin-4-yl)amino)-3-ethylpiperidin-1-yl)pyridazine-3-carbonitrile]
